The values that follow come from patent US20070298025A1, “Pharmaceutical Compositions and Methods for Reducing Body Fat” (Obe Therapy Biotechnology S.A.S., priority 2004, published 2007).

Structures can show the parent of a compound that is named as a salt. Non-standard residues stand in square brackets, D forms with d. Residues, ends and D or L forms follow the SMILES beside them. *: point of attachment. Boc = CC(C)(C)OC(=O)*; CH2Cl = ClC*

The target of test [1] is T1, enteropeptidase (Homo sapiens, UniProt P98073). The test can be described thus: Trypsinogen activation assay. The class given is biochemical. On the set-up: purchased R&D Systems 1585-SE. The text has this:
In vitro Testing: the Trypsinogen Activation Assay
Material: The following component, used in the present trypsinogen activation assay may be purchased as follows:
In the first step, the enteropeptidase cleaves the trypsinogen in its active form, trypsin. Trypsin, in the second step, cleaves the N-CBZ-Gly-Pro-Arg-p-nitroanilide (pNA) into N-CBZ-Gly-Pro-Arg and p-nitroanilide (pNA). The amount of pNA can be measured at 405 nm, and reflects the amount of trypsin cleaved and thus the inhibitory activity of the molecules tested on the enteropeptidase.
In the first step, the following mix was prepared (50 μl final) • recombinant human enteropeptidase: 1.5 nM final • sodium citrate: […] • candidate molecule or control: 1 μl • trypsinogen: 2.5 μM final
The mix was incubated at room temperature during 10 minutes and the reaction was stopped with 5 μl of HCl 0.4 M.
In the second step, the previous mix was then incubated with a 50 μl mix comprising 1 mM of N-CBZ-Gly-Pro-Arg-pNA, Tris Hcl pH 8.4 20 mM final and NaCl-150 mM final, at room temperature for 10 minutes. The absorbance of the resulting mix was read at 405 nm.
Results are expressed as the percentage of inhibition, which is the absorbance at 405 nm of the reaction in the presence of different concentrations of inhibitor as compared to the value obtained in the absence of inhibitor.

The target of the next test is pepsin (Homo sapiens, UniProt P0DJD8). The note with it: read-out: Ki (affinity for pepsin); cited from earlier work.
Sequence of pepsin (P0DJD8 63-388): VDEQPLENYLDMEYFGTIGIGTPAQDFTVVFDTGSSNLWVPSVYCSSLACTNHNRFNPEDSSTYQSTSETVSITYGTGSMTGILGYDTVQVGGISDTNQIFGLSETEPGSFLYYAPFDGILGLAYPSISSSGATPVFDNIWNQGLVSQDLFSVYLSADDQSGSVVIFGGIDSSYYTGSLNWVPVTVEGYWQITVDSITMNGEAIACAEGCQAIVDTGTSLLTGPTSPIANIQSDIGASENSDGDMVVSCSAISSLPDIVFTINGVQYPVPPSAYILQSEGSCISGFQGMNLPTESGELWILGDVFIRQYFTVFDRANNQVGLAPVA
Test [2] has as its target T1, enteropeptidase. Nature of the test: Test for enteropeptidase only (data not shown). The class given is biochemical.
Test [3] relates to people having Type II diabetes. Nature of the test: Treating Type II diabetes: blood glucose study. The class given is in vivo, human. The note with it: versus control group (placebo). How it is done:
Type II diabetes is a disease in which the amount of insulin produced by the pancreas is inadequate to meet the body's needs and thus glucose, which is metabolized by insulin is not taken up normally from the blood into the body tissues. Therefore glucose in the blood rises. Type II diabetes is detected by a fasting glucose level of greater than 126 mg/dL measured on two occasions or one blood glucose level of greater than 200 mg/dL on one occasion or two random blood glucose levels of more than 200 mg/dL. Also a glucose tolerance test having a glucose level of more than 200 mg/dL 2 hours after drinking 75 grams of glucose also qualifies an individual as having Type II diabetes.
Two groups of 10 people are used in this study. The first given a treatment of ritonavir at 600 mg taken twice a day, while the other 10 people were given a placebo. The treatment continued for 2 months.
(§1) The study group is advised to follow their normal routine concerning their eating habits and exercise patterns, which is recorded 1 month prior to this study and throughout this study.
At the end of two months blood glucose levels and a glucose tolerance test are tested with all of the people in the study.
The same study in Example 6 is conducted with a larger group of people having Type II diabetes. Each of the treated groups 1 to 7 is given as amprenavir, atazanavir, indinavir, lopinavir, fosamprenavir, nelfinavir or saquinavir in the same amounts as set forth in Example 3. The control group is given a placebo. At the end of two months another fasting (9-12 hours) lipid profile is taken.

The subject of test [4] is persons having hyperlipidemia. The test can be described thus: Treating hyperlipidemia: fasting lipid profile study. The class given is in vivo, human. The following applies: fasting (9-12 hours), versus control group. Here is the method:
Hyperlipidemia is an elevation of lipids in the bloodstream. These lipids include, for example, cholesterol and triglycerides. General hyperlipidemia is determined by the results of a lipid profile. The lipid profile includes LDL, HDL, triglycerides and total cholesterol measurements. A group of persons having hyperlipidemia with a total cholesterol level greater than 240 mg/dl, an HDL (high density lipid) of below 40 mg/ml, a triglyceride level of greater than 200 mg/dl and an LDL (low density lipid) level of over 160 mg/ml, after a 9 to 12 hours of fasting, are chosen for this study.
10 people are given a treatment of ritonavir at 600 mg taken twice a day. The other 10 people are given a placebo. The treatment continued for 2 months.
as §1
At the end of two months another fasting (9-12 hours) lipid profile is taken.
The same study in Example 8 is conducted with a larger group of people having hyperlipidemia. Each of the treated groups 1 to 7 is given as amprenavir, atazanavir, indinavir, lopinavir, fosamprenavir, nelfinavir or saquinavir in the same amounts as set forth in Example 3. The control group is given a placebo. At the end of two months another fasting (9-12 hours) lipid profile is taken.

Test [5] has as its target Recombinant human enteropeptidase (human, UniProt P98073 41-1019, limits assumed). The test can be described thus: cell-based or functional assay.
Where [6] appears, read: Example 7, groups 1 to 7, two months.
Where [7] appears, read: Example 9, groups 1 to 7, two months.

T1 sequence (P98073 whole entry): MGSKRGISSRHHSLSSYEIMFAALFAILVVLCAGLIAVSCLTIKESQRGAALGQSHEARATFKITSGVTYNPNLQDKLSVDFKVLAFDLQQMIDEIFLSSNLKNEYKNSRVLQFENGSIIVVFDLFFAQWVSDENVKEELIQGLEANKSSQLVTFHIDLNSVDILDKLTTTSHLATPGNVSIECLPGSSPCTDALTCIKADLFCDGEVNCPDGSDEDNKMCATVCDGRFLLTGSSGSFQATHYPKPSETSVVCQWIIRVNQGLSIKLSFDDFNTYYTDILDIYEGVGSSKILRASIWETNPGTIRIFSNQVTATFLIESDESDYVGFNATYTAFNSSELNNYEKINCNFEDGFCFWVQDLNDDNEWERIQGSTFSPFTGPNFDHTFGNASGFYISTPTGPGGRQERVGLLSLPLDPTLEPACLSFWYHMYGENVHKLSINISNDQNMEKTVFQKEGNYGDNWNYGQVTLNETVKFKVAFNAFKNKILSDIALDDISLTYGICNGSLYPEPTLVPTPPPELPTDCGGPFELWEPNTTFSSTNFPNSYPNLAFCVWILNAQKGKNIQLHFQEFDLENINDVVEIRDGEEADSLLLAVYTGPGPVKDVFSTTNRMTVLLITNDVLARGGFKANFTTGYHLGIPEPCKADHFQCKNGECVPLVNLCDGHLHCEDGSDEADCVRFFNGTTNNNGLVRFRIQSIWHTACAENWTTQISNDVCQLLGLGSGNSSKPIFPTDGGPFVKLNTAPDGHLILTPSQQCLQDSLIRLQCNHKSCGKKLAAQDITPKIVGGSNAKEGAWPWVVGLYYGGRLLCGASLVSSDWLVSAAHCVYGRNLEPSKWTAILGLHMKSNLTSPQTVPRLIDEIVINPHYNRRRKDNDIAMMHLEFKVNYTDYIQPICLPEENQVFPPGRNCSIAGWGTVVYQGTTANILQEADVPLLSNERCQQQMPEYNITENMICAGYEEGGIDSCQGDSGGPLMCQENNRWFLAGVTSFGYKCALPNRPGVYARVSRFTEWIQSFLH
Sequence of Recombinant human enteropeptidase (P98073 41-1019 E134Q/P732S limits assumed): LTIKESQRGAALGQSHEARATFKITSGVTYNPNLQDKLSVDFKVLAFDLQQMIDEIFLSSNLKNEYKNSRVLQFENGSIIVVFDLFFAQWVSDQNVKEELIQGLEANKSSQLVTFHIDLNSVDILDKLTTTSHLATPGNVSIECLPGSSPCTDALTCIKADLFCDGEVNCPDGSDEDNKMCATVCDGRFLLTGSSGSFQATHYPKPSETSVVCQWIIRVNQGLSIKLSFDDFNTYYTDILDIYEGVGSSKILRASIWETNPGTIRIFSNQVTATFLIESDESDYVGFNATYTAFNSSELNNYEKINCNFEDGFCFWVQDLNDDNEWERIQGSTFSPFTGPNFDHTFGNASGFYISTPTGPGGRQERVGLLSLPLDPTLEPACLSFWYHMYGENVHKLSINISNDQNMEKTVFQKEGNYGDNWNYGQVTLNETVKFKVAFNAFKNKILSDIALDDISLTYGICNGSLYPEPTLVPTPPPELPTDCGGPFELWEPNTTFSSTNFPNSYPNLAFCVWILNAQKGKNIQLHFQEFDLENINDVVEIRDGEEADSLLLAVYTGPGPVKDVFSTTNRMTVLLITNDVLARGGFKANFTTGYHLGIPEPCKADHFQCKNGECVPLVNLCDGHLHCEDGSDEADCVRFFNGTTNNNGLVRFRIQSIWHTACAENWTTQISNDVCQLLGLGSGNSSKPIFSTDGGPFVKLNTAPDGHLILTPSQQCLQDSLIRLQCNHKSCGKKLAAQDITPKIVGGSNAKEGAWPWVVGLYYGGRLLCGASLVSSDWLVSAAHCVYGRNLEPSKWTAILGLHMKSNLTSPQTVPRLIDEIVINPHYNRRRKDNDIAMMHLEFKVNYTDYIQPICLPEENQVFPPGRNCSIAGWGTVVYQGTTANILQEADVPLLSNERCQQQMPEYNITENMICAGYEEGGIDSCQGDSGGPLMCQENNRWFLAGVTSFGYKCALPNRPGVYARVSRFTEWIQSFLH

With `CC(=O)N[C@@H](CC(C)C)C(=O)N[C@H](C(=O)N[C@H](C=O)CCCCN)C(C)C` [AC-Leu-Val-Lys-Aldhehyde] (Ac-Leu-Val-Lys-aldehyde), on enteropeptidase [1] (trypsinogen activation assay, FIG. 6, enteropeptidase 1.5 nM, trypsinogen 2.5 μM), the IC50 (as a rule, the concentration at which inhibition is half-maximal) is about 3000 nM.

As to `CC(C)[C@H](NC(=O)[C@H](Cc1ccccc1)C[C@H](O)[C@H](Cc1ccccc1)NC(=O)OC(C)(C)C)C(=O)N[C@@H](Cc1ccccc1)C(=O)N1CCOCC1` [CGP 53437], the Ki (commonly a measure of affinity in units of concentration, obtained from inhibition or displacement) at pepsin was 8 nM.

On to `N=C(N)NCCC[C@H](NC(=O)[C@@H]1CCCN1C(=O)[C@H](N)Cc1ccc(O)cc1)C(=O)CCl` [H-D-Tyr-Pro-Arg-chloromethylketone trifluororoacetate salt] (H-[dY]-Pro-Arg-CH2Cl), for which, on enteropeptidase [2], the “IC50 when tested for enteropeptidase only, compared with the ones reported in FIG. 6” value is recorded as “higher”.

For `CC(C)CN(C[C@@H](O)[C@H](Cc1ccccc1)NC(=O)O[C@H]1CCOC1)S(=O)(=O)c1ccc(N)cc1` [amprenavir], the “levels of blood glucose” value in test [3] (setting [6]) was “significantly reduced”. Further, in test [4] (setting [7]), the “levels of HDL” value is reported as “higher”, the “levels of LDL” value was “significantly reduced”, the levels of cholesterol result is “significantly reduced” and the levels of triglycerides entry is “significantly reduced”.

Turning to `COC(=O)N[C@H](C(=O)N[C@@H](Cc1ccccc1)[C@@H](O)CN(Cc1ccc(-c2ccccn2)cc1)NC(=O)[C@@H](NC(=O)OC)C(C)(C)C)C(C)(C)C` [atazanavir], the “levels of blood glucose” value in test [3] (setting [6]) was “significantly reduced”. In test [4] (setting [7]), the “levels of HDL” value is recorded as “higher”, the “levels of LDL” value is listed as “significantly reduced”, the levels of cholesterol result is “significantly reduced” and the levels of triglycerides result is listed as “significantly reduced”.

Regarding `CC(C)CN(C[C@@H](OP(=O)(O)O)[C@H](Cc1ccccc1)NC(=O)O[C@H]1CCOC1)S(=O)(=O)c1ccc(N)cc1` [fosamprenavir], in test [3] (setting [6]), the “levels of blood glucose” value was “significantly reduced”. In test [4] (setting [7]), the “levels of HDL” value was “higher”, the “levels of LDL” value was “significantly reduced”, the levels of cholesterol entry was “significantly reduced” and the levels of triglycerides entry was “significantly reduced”.

As for `CC(C)(C)NC(=O)[C@@H]1CN(Cc2cccnc2)CCN1C[C@@H](O)C[C@@H](Cc1ccccc1)C(=O)N[C@H]1c2ccccc2C[C@H]1O` [indinavir], the “levels of blood glucose” value in test [3] (setting [6]) is listed as “significantly reduced”. In addition, in test [4] (setting [7]), the “levels of HDL” value is given as “higher”, the “levels of LDL” value is reported as “significantly reduced”, the levels of cholesterol result is on record as “significantly reduced” and the levels of triglycerides entry is “significantly reduced”.

For the molecule `Cc1cccc(C)c1OCC(=O)N[C@@H](Cc1ccccc1)[C@@H](O)C[C@H](Cc1ccccc1)NC(=O)[C@H](C(C)C)N1CCCNC1=O` [lopinavir], the “levels of blood glucose” value in test [3] (setting [6]) is given as “significantly reduced”. In addition, in test [4] (setting [7]), the “levels of HDL” value was “higher”, the “levels of LDL” value is recorded as “significantly reduced”, the levels of cholesterol entry is on record as “significantly reduced” and the levels of triglycerides result is listed as “significantly reduced”.

Consider `Cc1c(O)cccc1C(=O)N[C@@H](CSc1ccccc1)[C@H](O)CN1C[C@H]2CCCC[C@H]2C[C@H]1C(=O)NC(C)(C)C` [nelfinavir], for which the “levels of blood glucose” value in test [3] (setting [6]) is recorded as “significantly reduced”. Further, in test [4] (setting [7]), the “levels of HDL” value is recorded as “higher”, the “levels of LDL” value is recorded as “significantly reduced”, the levels of cholesterol result was “significantly reduced” and the levels of triglycerides entry is recorded as “significantly reduced”.

For the molecule `CC(C)c1nc(CN(C)C(=O)N[C@H](C(=O)N[C@@H](Cc2ccccc2)C[C@H](O)[C@H](Cc2ccccc2)NC(=O)OCc2cncs2)C(C)C)cs1` [ritonavir], in test [3] (600 mg twice a day, 2 months), the “levels of blood glucose” value is recorded as “significantly reduced”. Moreover, in test [4] (600 mg twice a day, 2 months), the “levels of HDL” value was “higher”, the “levels of LDL” value is reported as “significantly reduced”, the “levels of total cholesterol” value was “significantly reduced” and the levels of triglycerides entry was “significantly reduced”.

On to `CC(C)(C)NC(=O)[C@@H]1C[C@@H]2CCCC[C@@H]2CN1C[C@@H](O)[C@H](Cc1ccccc1)NC(=O)[C@H](CC(N)=O)NC(=O)c1ccc2ccccc2n1` [saquinavir], for which the “levels of blood glucose” value in test [3] (setting [6]) is given as “significantly reduced”. For the same molecule, in test [4] (setting [7]), the “levels of HDL” value is given as “higher”, the “levels of LDL” value is “significantly reduced”, the levels of cholesterol entry is “significantly reduced” and the levels of triglycerides result was “significantly reduced”.

Regarding AC-Leu-Val-Lys-Aldhehyde (peptide), in test [5], the IC50 in the trypsinogen activation assay (percentage of inhibition, absorbance of pNA at 405 nM) was 3 µM.

Regarding “BOC-Ala-Glu-Val-Asp-Aldehyde (Boc-AEVD-aldehyde; SMILES CC(C)[C@H](NC(=O)[C@H](CCC(=O)O)NC(=O)[C@H](C)NC(=O)OC(C)(C)C)C(=O)N[C@H](C=O)CC(=O)O) [negative control, Bachem N-1755]”, the inhibition entry with enteropeptidase [1] (tested at 10 μm) was “no inhibition”.

For Z-Asp-Glu-Val-Asp-chloromethylketone, in the test with enteropeptidase [2], the “IC50 when tested for enteropeptidase only, compared with the ones reported in FIG. 6” value is reported as “higher”. The inhibition entry in the test with enteropeptidase [1] (tested at 50 μm) was “no inhibition”.

B1: 1,5-Dansyl-Glu-Gly-Arg-chloromethylketone dihydrochloride (peptide)
peptide: {1,5‑dansyl}-Glu-Gly-Arg-CH2Cl
modifications: also: dihydrochloride salt
In the case of B1, the “IC50 in the trypsinogen activation assay (percentage of inhibition, absorbance of pNA at 405 nM)” value in test [5] is about 24.7 nM.

B2: H-D-Tyr-Pro-Arg-chloromethylketone trifluororoacetate salt (peptide)
peptide: H-[dY]-Pro-Arg-CH2Cl
modifications: also: trifluoroacetate salt
On to B2, for which the “IC50 in the trypsinogen activation assay (percentage of inhibition, absorbance of pNA at 405 nM)” value in test [5] was about 35 nM.
